pIC50: −log10 of the molar value. Numbered stars: 1 amine (or outer) side, 2 acyl side, 3 side chain; on linkers, the order of the positions; unused ones are H or OH. Bridge positions count the residues as written; N and C are the ends. Square brackets hold non-standard residues; d marks the D form. Peptide text beside a SMILES is read from it. * marks the point of attachment. ξ: configuration not given here. Bip = N[C@@H](Cc1ccc(-c2ccccc2)cc1)C(=O)O; Phe(3-OMe) = COc1cccc(C[C@H](N)C(=O)O)c1; Phe(3-Me) = Cc1cccc(C[C@H](N)C(=O)O)c1; γGlu = O=C(O)[C@H](CCC(=O)[*:2])N[*:1]; Val(3-OH) = CC(C)(O)[C@H](N)C(=O)O; hArg = N=C(N)NCCCC[C@H](N)C(=O)O; 4Pal = N[C@@H](Cc1ccncc1)C(=O)O; Cha = N[C@@H](CC1CCCCC1)C(=O)O; Cit = NC(=O)NCCC[C@H](N)C(=O)O; Thr(3ξ) = CC(O)[C@H](N)C(=O)O; Phg = N[C@H](C(=O)O)c1ccccc1; Carboxymethyl = O=C(O)C*; Orn = NCCC[C@H](N)C(=O)O; Pra = C#CC[C@H](N)C(=O)O; Aun = NCCCCCCCCCCC(=O)O; Dab = NCC[C@H](N)C(=O)O; Dap = NC[C@H](N)C(=O)O; AEEA = NCCOCCOCC(=O)O
Target: T1, PD-1/PD-L1 interaction (PE-labeled human PD-L1-Ig binding to Jurkat cell line over-expressing human PD-1) (Homo sapiens, UniProt Q15116)
T1 construct: expressed in transfected cells; host or cells: Jurkat
Experiment: Jurkat-PD-1 Cell Binding High-Content Screening Assay (CBA)
Assay type: cell-based
Details: Jurkat cell line over-expressing human PD-1; PE-labeled PD-L1-Ig 20 nM final; read-out: Jurkat hPD1-PDL1 IC50
Procedure, shortened: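 Binding of fluorescent PD-L1-Ig (phycoerythrin on Ig tag, 20 nM final, 1 h) measured by high-content imaging of fixed, Hoechst-counterstained Jurkat-hPD-1 cells. Compound added 2 h at 37° C beforehand, in DMEM with 10% fetal calf serum.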

T1 sequence (Q15116 25-288): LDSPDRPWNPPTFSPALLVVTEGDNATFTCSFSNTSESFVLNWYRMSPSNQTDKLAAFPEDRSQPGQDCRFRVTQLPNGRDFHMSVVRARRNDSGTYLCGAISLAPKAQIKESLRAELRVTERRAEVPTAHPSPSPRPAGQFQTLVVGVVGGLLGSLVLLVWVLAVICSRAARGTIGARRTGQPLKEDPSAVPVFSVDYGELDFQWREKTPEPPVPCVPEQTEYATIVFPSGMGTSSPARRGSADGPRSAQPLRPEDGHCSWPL

SMILES | pIC50
Cc1cccc(C[C@@H]2NC(=O)[C@H](CC(=O)O)NC(=O)[C@H](Cc3ccc(OCC(=O)O)cc3)NC(=O)[C@H](CN)NC(=O)CSC[C@@H](C(=O)N[C@@H](C)C(=O)N[C@@H](CC(=O)O)C(=O)NCC(=O)NCCCCCCCCCCC(=O)O)NC(=O)[C@H]([C@@H](C)O)NC(=O)[C@H](C(C)C)NC(=O)[C@H](CC3CCCCC3)NC(=O)[C@H](CCN)NC(=O)[C@@H](CC(C)C)NC(=O)[C@H](CCCN)NC(=O)[C@H](CCC(=O)O)NC(=O)[C@H](Cc3ccc(-c4ccccc4)cc3)NC(=O)[C@H](C(C)C)NC2=O)c1 [Compound 1047] ({CH2CO}-[Dap]Y(Carboxymethyl)D[Phe(3-Me)]V[Bip]E[Orn][dL][Dab][Cha]VTCADG[Aun]-OH; thioether N-14) | 7.88
Cc1cccc(C[C@@H]2NC(=O)[C@H](CC(=O)O)NC(=O)[C@H](Cc3ccc(OCC(=O)O)cc3)NC(=O)[C@H](CN)NC(=O)CSC[C@@H](C(=O)N[C@@H](C)C(=O)N[C@@H](CCC(=O)O)C(=O)NCCOCCOCC(=O)N[C@@H](CCC(=O)NCCOCCOCC(=O)NCCCCCCCCCCC(=O)O)C(=O)O)NC(=O)[C@H]([C@@H](C)O)NC(=O)[C@H](C(C)C)NC(=O)[C@H](CC3CCCCC3)NC(=O)[C@H](CCN)NC(=O)[C@@H](CC(C)C)NC(=O)[C@H](CCCN)NC(=O)[C@H](CCCNC(N)=O)NC(=O)[C@H](Cc3ccc(-c4ccccc4)cc3)NC(=O)[C@H](C(C)C)NC2=O)c1 [Compound 1015] ({CH2CO}-[Dap]Y(Carboxymethyl)D[Phe(3-Me)]V[Bip][Cit][Orn][dL][Dab][Cha]VTCAE[AEEA][γGlu][AEEA][Aun]-OH; thioether N-14) | 8.10
Cc1cccc(C[C@@H]2NC(=O)[C@H](CC(=O)O)NC(=O)[C@H](Cc3ccc(OCC(=O)O)cc3)NC(=O)[C@H](CN)NC(=O)CSC[C@@H](C(=O)N[C@@H](CCN)C(=O)NCCCCCCCCCCC(=O)O)NC(=O)[C@H](CN)NC(=O)[C@H](Cc3ccc(O)cc3)NC(=O)[C@H](CC3CCCCC3)NC(=O)[C@H](CCN)NC(=O)[C@@H](CC(C)C)NC(=O)[C@H](CCCN)NC(=O)[C@H](Cc3ccc(O)cc3)NC(=O)[C@H](Cc3ccc(-c4ccccc4)cc3)NC(=O)[C@H](Cc3ccc(O)cc3)NC2=O)c1 [Compound 2510] ({CH2CO}-[Dap]Y(Carboxymethyl)D[Phe(3-Me)]Y[Bip]Y[Orn][dL][Dab][Cha]Y[Dap]C[Dab][Aun]-OH; thioether N-14) | 7.19
Cc1cccc(C[C@@H]2NC(=O)[C@H](CC(=O)O)NC(=O)[C@H](Cc3ccc(OCC(=O)O)cc3)NC(=O)[C@H](CN)NC(=O)CSC[C@@H](C(=O)N[C@@H](CCN)C(=O)NCCCCCCCCCCC(=O)O)NC(=O)[C@H](c3ccccc3)NC(=O)[C@H](C(C)C)NC(=O)[C@H](CC(C)C)NC(=O)[C@H](CCN)NC(=O)[C@@H](CC(C)C)NC(=O)[C@H](CCCN)NC(=O)[C@H](Cc3ccc(O)cc3)NC(=O)[C@H](Cc3ccc(-c4ccccc4)cc3)NC(=O)[C@H](C(C)C)NC2=O)c1 [Compound 2772] ({CH2CO}-[Dap]Y(Carboxymethyl)D[Phe(3-Me)]V[Bip]Y[Orn][dL][Dab]LV[Phg]C[Dab][Aun]-OH; thioether N-14) | 7.17
COc1cccc(C[C@@H]2NC(=O)[C@H](Cc3cccc(C)c3)NC(=O)[C@H](CC(=O)O)NC(=O)[C@H](Cc3ccc(OCC(=O)O)cc3)NC(=O)[C@H](Cc3ccncc3)NC(=O)CSC[C@@H](C(=O)N[C@@H](CCN)C(=O)NCCCCCCCCCCC(=O)O)NC(=O)[C@H](CO)NC(=O)[C@H](C(C)(C)O)NC(=O)[C@H](CC3CCCCC3)NC(=O)[C@H](CCN)NC(=O)[C@@H](CC(C)C)NC(=O)[C@H](CCCN)NC(=O)[C@H](Cc3ccc(OCC(=O)O)cc3)NC(=O)[C@H](Cc3ccc(-c4ccccc4)cc3)NC2=O)c1 [Compound 2186] ({CH2CO}-[4Pal]Y(Carboxymethyl)D[Phe(3-Me)][Phe(3-OMe)][Bip]Y(Carboxymethyl)[Orn][dL][Dab][Cha][Val(3-OH)]SC[Dab][Aun]-OH; thioether N-14) | 7.85
C#CC[C@H](NC(=O)COCCOCCNC(=O)[C@@H]1CSCC(=O)N[C@@H](Cc2ccncc2)C(=O)N[C@@H](Cc2ccc(OCC(=O)O)cc2)C(=O)N[C@@H](CC(=O)O)C(=O)N[C@@H](Cc2c[nH]c3ccccc23)C(=O)N[C@@H](C(C)C)C(=O)N[C@@H](Cc2ccc(-c3ccccc3)cc2)C(=O)N[C@@H]([C@@H](C)CC)C(=O)N[C@@H](CCCN)C(=O)N[C@H](CC(C)C)C(=O)N[C@@H](CCN)C(=O)N[C@@H](CC(C)C)C(=O)N[C@@H](C(C)C)C(=O)N[C@@H]([C@@H](C)O)C(=O)N1)C(=O)N[C@@H](CCN)C(=O)NCCCCCCCCCCC(=O)O [Compound 1212] ({CH2CO}-[4Pal]Y(Carboxymethyl)DWV[Bip]I[Orn][dL][Dab]LVTC[AEEA][Pra][Dab][Aun]-OH; thioether N-14) | 7.48

Continued, values first:

pIC50 | SMILES
8.41 | CC(C)C[C@H]1NC(=O)[C@H](CCCN)NC(=O)[C@H](C(C)C)NC(=O)[C@H](Cc2ccc(-c3ccccc3)cc2)NC(=O)[C@H](C(C)C)NC(=O)[C@H](Cc2c[nH]c3ccccc23)NC(=O)[C@H](CC(=O)O)NC(=O)[C@H](Cc2ccc(OCC(=O)O)cc2)NC(=O)[C@H](Cc2ccncc2)NC(=O)CSC[C@@H](C(=O)NCC(=O)NCCOCCOCC(=O)N[C@@H](CCCN)C(=O)NCCCCCCCCCCC(=O)O)NC(=O)[C@H](CCN)NC(=O)[C@H](C(C)C)NC(=O)[C@H](CC2CCCCC2)NC(=O)[C@H](CCN)NC1=O [Compound 3236] ({CH2CO}-[4Pal]Y(Carboxymethyl)DWV[Bip]V[Orn][dL][Dab][Cha]V[Dab]CG[AEEA][Orn][Aun]-OH; thioether N-14)
8.12 | Cc1cccc(C[C@@H]2NC(=O)[C@H](CC(=O)O)NC(=O)[C@H](Cc3ccc(OCC(=O)O)cc3)NC(=O)[C@H](CN)NC(=O)CSC[C@@H](C(=O)N[C@@H](CCC(=O)O)C(=O)NCCOCCOCC(=O)NCCCCCCCCCCC(=O)O)NC(=O)[C@H]([C@@H](C)O)NC(=O)[C@H](C(C)C)NC(=O)[C@H](CC3CCCCC3)NC(=O)[C@H](CCN)NC(=O)[C@@H](CC(C)C)NC(=O)[C@H](CCCN)NC(=O)[C@H](CCCNC(N)=O)NC(=O)[C@H](Cc3ccc(-c4ccccc4)cc3)NC(=O)[C@H](C(C)C)NC2=O)c1 [Compound 1037] ({CH2CO}-[Dap]Y(Carboxymethyl)D[Phe(3-Me)]V[Bip][Cit][Orn][dL][Dab][Cha]VTCE[AEEA][Aun]-OH; thioether N-14)
8.19 | Cc1cccc(C[C@@H]2NC(=O)[C@H](CC(=O)O)NC(=O)[C@H](Cc3ccc(OCC(=O)O)cc3)NC(=O)[C@H](CCCNC(=N)N)NC(=O)CSC[C@@H](C(=O)N[C@@H](CCN)C(=O)NCCCCCCCCCCC(=O)O)NC(=O)[C@H](CCCNC(N)=O)NC(=O)[C@H](C(C)C)NC(=O)[C@H](CC3CCCCC3)NC(=O)[C@H](CCN)NC(=O)[C@@H](CC(C)C)NC(=O)[C@H](CCCN)NC(=O)[C@H](CCC(N)=O)NC(=O)[C@H](Cc3ccc(-c4ccccc4)cc3)NC(=O)[C@H](C(C)C)NC2=O)c1 [Compound 3305] ({CH2CO}-RY(Carboxymethyl)D[Phe(3-Me)]V[Bip]Q[Orn][dL][Dab][Cha]V[Cit]C[Dab][Aun]-OH; thioether N-14)
8.14 | CC(C)C[C@H]1NC(=O)[C@H](CCN)NC(=O)[C@H](C(C)C)NC(=O)[C@H](Cc2ccc(-c3ccccc3)cc2)NC(=O)[C@H](C(C)C)NC(=O)[C@H](Cc2c[nH]c3ccccc23)NC(=O)[C@H](CC(=O)O)NC(=O)[C@H](Cc2ccc(OCC(=O)O)cc2)NC(=O)[C@H](CCCCNC(=N)N)NC(=O)CSC[C@@H](C(=O)NCCOCCOCC(=O)NCCCCCCCCCCC(=O)O)NC(=O)[C@H](CCCN)NC(=O)[C@H](C(C)C)NC(=O)[C@H](CC2CCCCC2)NC(=O)[C@H](CCN)NC1=O [Compound 3265] ({CH2CO}-[hArg]Y(Carboxymethyl)DWV[Bip]V[Dab][dL][Dab][Cha]V[Orn]C[AEEA][Aun]-OH; thioether N-14)
7.96 | Cc1cccc(C[C@@H]2NC(=O)[C@H](CC(=O)O)NC(=O)[C@H](Cc3ccc(OCC(=O)O)cc3)NC(=O)[C@H](CCCCNC(=N)N)NC(=O)CSC[C@@H](C(=O)N[C@@H](CCN)C(=O)NCCOCCOCC(=O)NCCCCCCCCCCC(=O)O)NC(=O)[C@H](CCCN)NC(=O)[C@H](C(C)C)NC(=O)[C@H](CC3CCCCC3)NC(=O)[C@H](CCN)NC(=O)[C@@H](CC(C)C)NC(=O)[C@H](CCCN)NC(=O)[C@H](C(C)C)NC(=O)[C@H](Cc3ccc(-c4ccccc4)cc3)NC(=O)[C@H](C(C)C)NC2=O)c1 [Compound 3245] ({CH2CO}-[hArg]Y(Carboxymethyl)D[Phe(3-Me)]V[Bip]V[Orn][dL][Dab][Cha]V[Orn]C[Dab][AEEA][Aun]-OH; thioether N-14)
7.95 | CC(=O)NCCCC[C@@H]1NC(=O)[C@H](Cc2ccc(-c3ccccc3)cc2)NC(=O)[C@H](C(C)C)NC(=O)[C@H](Cc2cccc(C)c2)NC(=O)[C@H](CC(=O)O)NC(=O)[C@H](Cc2ccc(OCC(=O)O)cc2)NC(=O)[C@H](CCCNC(=N)N)NC(=O)CSC[C@@H](C(=O)N[C@H](CC(N)=O)C(=O)NCCCCCCCCCCC(=O)O)NC(=O)[C@H](C(C)O)NC(=O)[C@H](C(C)C)NC(=O)[C@H](CC2CCCCC2)NC(=O)[C@H](CCN)NC(=O)[C@@H](CC(C)C)NC(=O)[C@H](CCCN)NC1=O (stereo partly drawn) [Compound 3548] ({CH2CO}-RY(Carboxymethyl)D[Phe(3-Me)]V[Bip]K(Ac)[Orn][dL][Dab][Cha]V[Thr(3ξ)]C[dN][Aun]-OH; thioether N-14)
7.16 | Cc1cccc(C[C@@H]2NC(=O)[C@H](CC(=O)O)NC(=O)[C@H](Cc3ccc(OCC(=O)O)cc3)NC(=O)[C@H](CN)NC(=O)CSC[C@@H](C(=O)N[C@@H](CCN)C(=O)NCCCCCCCCCCCCC(=O)O)NC(=O)[C@H](C(C)O)NC(=O)[C@H](C(C)C)NC(=O)[C@H](CC3CCCCC3)NC(=O)[C@H](CCN)NC(=O)[C@@H](CC(C)C)NC(=O)[C@H](CCCN)NC(=O)[C@H](CCCNC(N)=O)NC(=O)[C@H](Cc3ccc(-c4ccccc4)cc3)NC(=O)[C@H](C(C)C)NC2=O)c1 (mixture of isomers) [Compound 3126]
